Test results published in patent US4058523A, “Bis(benzamido)-benzene derivatives” (Chugai Seiyaku Kabushiki Kaisha, priority 1974, dated 1977).

Key:
[1] = test system: stress-induced ulcer formation; test: Inhibitory action on stress-induced ulcer formation; type: in vivo, Sprague-Dawley strain male rats; conditions: oral, rats, 10 minutes before stress
Experimental: Action on stress-induced ulcer formation
Sprague-Dawley strain male rats weighing 200-250 g were deprived of food for 24 hours, and then laid down on their backs on a screen and fixed by fastening their limbs with a strand. The fixed rats were submerged in water bath to the depth of ensiform process with their hind legs dipped first. Sixteen hours after the submergence, the rats were brought out from the bath and their stomachs were taken out. After light fixation with a 1% formalin aqueous solution, the stomach of each animal was cut open along their greater curvature and gastric mucosa was observed through a dissecting microscope. The ulcer was evaluated on an ulcer index calculated from the following equation: […]
wherein a is the number of big ulcers more than 3 mm in diameter and b is the number of small ulcers up to 3 mm in diameter.
A test compound was orally administered as a suspension in a 1% gum arabic aqueous solution, 10 minutes before exposure to stress.

Acute toxicity in mice = conditions: mouse, in vivo
Experimental: Acute toxicity of 1-(3'-dimethylaminopropoxy)-2,4-bis(2"-methylbenzamido)-benzene, 1-(3'-dimethylaminopropoxy)-2,4-bis(3"-methylbenzamido)-benzene, 1-[N-(3-dimethylaminopropyl)-carbamoyl]-2,4-bis(2"-methylbenzamido)-benzene and 1-[N-(3'-dimethylaminopropyl)-carbamoyl]-2,4-bis(3"-methylbenzamido)-benzene were observed by the use of ddY strain male mice (5 weeks old) which were administered orally or intravenously with one of the compounds.
In the case of intravenous administration, the hydrochloride of test compound was dissolved in a physiological saline solution and administered by injecting into a vein of the tail. LD50 was determined by the "Up and Down" method.
When the administration was effected orally, the test compound was suspended in a 1% gum arabic aqueous solution and the suspension was administered orally by gavage. LD50 was determined by the Litchfield and Wilcoxon method or Miller and Tainter method based on death rate of each group of […] 10 days after the administration of the compound.

[2] = test system: pylorus ligature ulcer formation; test: Protective action on pylorus ligature ulcer formation; type: in vivo, Sprague-Dawley strain male rats; conditions: in the duodenum, rats; for Percent Death Rate / Percent Perforating Ulcers: 16 hours after pylorus ligature
Experimental: Protective Action on pylorus ligature ulcer formation
The pylorus of Sprague-Dawley strain male rats weighing 150-200 g that had abstained from food, but not water for 48 hours was ligatured under ether anethsia. Each rat was allowed to stand individually in a cage for 16 hours without food and water. At the end of this term, the rats were sacrificed by an overdose of diethyl ether. The stomach was taken out of each animal and the gastric mucosa was observed by the use of a dissecting microscope.
Ulcers observed in the gastric mucosa were evaluated on a scale of from 0 to 5 defined as follows.
0: No lesion was observed.
1: Hemorrhage and/or erosion were observed.
2: One to five small ulcers less than 3 mm in diameter were observed.
3: Six or more small ulcers and/or a large ulcer more than 3 mm in diameter were observed.
4: Two or more large ulcers were observed.
5: At least one perforating ulcer was observed.
A test compound was administered as an aqueous solution in an equivalent molar of hydrochloric acid in the duodenum immediately after the pylorus ligature.

[3] = iv, hydrochloride in physiological saline, Up and Down Method
[4] = oral, 1% gum arabic suspension, 10 days, Litchfield and Wilcoxon Method

Structure (SMILES)	Number of Ulcers/Stomach, up to 3 mm ([1]; 30 mg/kg)	Number of Ulcers/Stomach, up to 3 mm ([1]; 45 mg/kg)	Number of Ulcers/Stomach, up to 3 mm ([1]; 67 mg/kg)	Number of Ulcers/Stomach, up to 3 mm ([1]; 100 mg/kg)	LD50 (Acute toxicity in mice; [3]) [mg/kg]	LD50 (Acute toxicity in mice; [4]) [mg/kg]	Percent Death Rate ([2]; 50 mg/kg) [%]	Percent Perforating Ulcers ([2]; 50 mg/kg) [%]	Percent Death Rate ([2]; 100 mg/kg) [%]	Percent Perforating Ulcers ([2]; 100 mg/kg) [%]	Percent Death Rate ([2]; 200 mg/kg) [%]	Percent Perforating Ulcers ([2]; 200 mg/kg) [%]	Percent Inhibition ([2]; 200 mg/kg, 16 hours, ulcer index vs control) [%]	LD50 (Acute toxicity in mice; oral, 1% gum arabic suspension, 10 days, Miller and Tainter Method) [mg/kg]
Cc1ccccc1C(=O)Nc1ccc(OCCCN(C)C)c(NC(=O)c2ccccc2C)c1 [1-(3'-dimethylaminopropoxy)-2,4-bis(2"-methylbenzamido)-benzene]	23	17	9	4	42	2520	20	20	0	0	0	0		
Cc1cccc(C(=O)Nc2ccc(OCCCN(C)C)c(NC(=O)c3cccc(C)c3)c2)c1 [1-(3'-dimethylaminopropoxy)-2,4-bis(3"-methylbenzamido)-benzene]	21	9	7	11	38	4700	33	50	0	0	0	0	75	
Cc1ccccc1C(=O)Nc1ccc(C(=O)NCCCN(C)C)c(NC(=O)c2ccccc2C)c1 [1-[N-(3'-dimethylaminopropyl)-carbamoyl]-2,4-bis(2"-methylbenzamido)-benzene]				23	111						0	0		
Cc1cccc(C(=O)Nc2ccc(C(=O)NCCCN(C)C)c(NC(=O)c3cccc(C)c3)c2)c1 [1-[N-(3'-dimethylaminopropyl)-carbamoyl]-2,4-bis(3"-methylbenzamido)-benzene]				17	88						0	0		5100
